“Also recorded” adds a separate entry of the source.
What was measured:
SARS-CoV-2 3CLpro = SARS-CoV-2 3CLpro (Severe acute respiratory syndrome coronavirus 2, UniProt P0DTD1); test: SARS-CoV-2 3CLpro; type: biochemical
SARS-CoV-2^WK−521 = test: Immunocytochemistry assay of infected VeroE6 cells; type: cell-based; details: for infected cells by immunocytochemistry: VeroE6 cells exposed to SARS-CoV-2^WK−521; for infectivity and cytopathic effect of SARS-CoV-2: VeroE6^TMPRSS2 cells
SARS-CoV-2 = type: cell-based; details: VeroE6 cells

CC(C)(C)[C@H](NC(=O)C(F)(F)F)C(=O)N1C[C@H]2[C@@H]([C@H]1C(=O)N[C@H](C#N)C[C@@H]1CCCNC1=O)C2(C)C [Compound 5e, (1R,2S,5S)-N-((S)-1-Cyano-2-((S)-2-oxopiperidin-3-yl)ethyl)-3-((S)-3,3-dimethyl-2-(2,2,2-trifluoroacetamido)butanoyl)-6,6-dimethyl-3-azabicyclo[3.1.0]hexane-2-carboxamide]
toxicity (VeroE6 cells): without significant toxicity | improvement of Mpro inhibitory activity over nirmatrelvir 1 (SARS-CoV-2 3CLpro; ratio of Ki values): more than 6 fold | infected cells by immunocytochemistry (SARS-CoV-2^WK−521; 1 μM compound): some infected cells were observed | infected cells by immunocytochemistry (SARS-CoV-2^WK−521; 10 μM compound): hardly any infected cells | infected cells by immunocytochemistry (SARS-CoV-2^WK−521; 100 μM compound): hardly any infected cells | infectivity and cytopathic effect of SARS-CoV-2 (SARS-CoV-2^WK−521): significantly reduced; also recorded: potently blocked

CC(C)(C)[C@H](NC(=O)C(Cl)(Cl)Cl)C(=O)N1C[C@H]2[C@@H]([C@H]1C(=O)N[C@H](C#N)C[C@@H]1CCCNC1=O)C2(C)C [Compound 5f, (1R,2S,5S)-N-((S)-1-Cyano-2-((S)-2-oxopiperidin-3-yl)ethyl)-3-((S)-3,3-dimethyl-2-(2,2,2-trichloroacetamido)butanoyl)-6,6-dimethyl-3-azabicyclo[3.1.0]hexane-2-carboxamide]
improvement in antiviral activity over nirmatrelvir 1 (SARS-CoV-2; ratio of EC50 values): over 7 fold

CC(C)(C)[C@H](NC(=O)C(F)(F)F)C(=O)N1C[C@H]2[C@@H]([C@H]1C(=O)N(C(=O)C(F)(F)F)[C@H](C#N)C[C@@H]1CCNC1=O)C2(C)C [Compound 5h, (1R,2S,5S)-N-((S)-1-Cyano-2-((S)-2-oxopyrrolidin-3-yl)ethyl)-3-((S)-3,3-dimethyl-2-(2,2,2-trifluoroacetamido)butanoyl)-6,6-dimethyl-N-(2,2,2-trifluoroacetyl)-3-azabicyclo[3.1.0] hexane-2-carboxamide]
antiviral activity (in words) (SARS-CoV-2): no appreciable | Mpro inhibitory activity (in words) (SARS-CoV-2 3CLpro): no appreciable

CC(C)(C)[C@H](NC(=O)OCc1cccnc1)C(=O)N1C[C@H]2[C@@H]([C@H]1C(=O)N[C@H](C#N)C[C@@H]1CCNC1=O)C2(C)C [Compound 5k, Pyridin-3-ylmethyl((2S)-1-((1R,2S,5S)-2-((1-cyano-2-((S)-2-oxopyrrolidin-3-yl)ethyl)carbamoyl)-6,6-dimethyl-3-azabicyclo[3.1.0]hexan-3-yl)-3,3-dimethyl-1-oxobutan-2-yl)carbamate]
improvement of antiviral activity compared to benzyl carbamate derivative 5i (SARS-CoV-2): > 8 fold

CC(C)(C)NC(=O)N[C@H](C(=O)N1C[C@H]2[C@@H]([C@H]1C(=O)N[C@H](C#N)C[C@@H]1CCNC1=O)C2(C)C)C(C)(C)C [Compound 5m, (1R,2S,5S)-3-((S)-2-(3-(Tert-butyl)ureido)-3,3-dimethylbutanoyl)-N-((S)-1-cyano-2-((S)-2-oxopyrrolidin-3-yl)ethyl)-6,6-dimethyl-3-azabicyclo[3.1.0]hexane-2-carboxamide]
loss of antiviral activity compared to Boc-derivative 5g (SARS-CoV-2): 3 fold

CC(C)(C)[C@H](NC(=O)C(F)(F)F)C(=O)N1C[C@H]2[C@@H]([C@H]1C(=O)N[C@H](C#N)C[C@@H]1CCNC1=O)C2(C)C [Nirmatrelvir, (1R,2S,5S)-N-((S)-1-Cyano-2-((S)-2-oxopyrrolidin-3-yl)ethyl)-3-((S)-3,3-dimethyl-2-(2,2,2-trifluoroacetamido)butanoyl)-6,6-dimethyl-3-azabicyclo[3.1.0]hexane-2-carboxamide, reference compound]
infected cells by immunocytochemistry (SARS-CoV-2^WK−521; 1 μM compound): complete viral breakthrough | infected cells by immunocytochemistry (SARS-CoV-2^WK−521; 10 μM compound): hardly any infected cells | infected cells by immunocytochemistry (SARS-CoV-2^WK−521; 100 μM compound): hardly any infected cells | infectivity and cytopathic effect of SARS-CoV-2 (SARS-CoV-2^WK−521): potently blocked
